In patent US6420423B1 (priority 1995, dated 2002):

Tests used:
Phytophthora infestans = assay type: in vivo; details: 20 ppm of the active substance; test a) or b) not distinguished
Plasmopara viticola = details: 20 ppm of the active substance, vines

Structure (SMILES): CCO/N=C(/C(C)=NOCc1ccccc1C(=NOC)C(=O)OC)c1ccc(OCc2cccc(C(F)(F)F)c2)cc1
- melting point: 68 to 70 °C

Structure (SMILES): CCCCOc1ccc(C(=NOC)C(C)=NOCc2ccccc2C(=COC)C(=O)OC)cc1 (mixture of isomers) [Compound 1.33]
- suppression of infestation (Phytophthora infestans): completely suppressed
- curative action (Plasmopara viticola): complete curative action

Structure (SMILES): COC=C(C(=O)OC)c1ccccc1CON=C(C)C(=NOC)c1ccc(OCC2CC2(Cl)Cl)c(F)c1 (single isomer, unassigned) [Compound 1.4]
- suppression of infestation (Phytophthora infestans): completely suppressed
- curative action (Plasmopara viticola): complete curative action

Structure (SMILES): COC=C(C(=O)OC)c1ccccc1CON=C(C)C(=NOC)c1ccc(OCC2CC2(Cl)Cl)c(Cl)c1 (single isomer, unassigned) [Compound 1.19]
- suppression of infestation (Phytophthora infestans): completely suppressed

Structure (SMILES): COC=C(C(=O)OC)c1ccccc1CON=C(C)C(=NOC)c1ccc(OCC2CC2(Cl)Cl)c(Cl)c1 (single isomer, unassigned) [Compound 1.20]
- suppression of infestation (Phytophthora infestans): completely suppressed

Structure (SMILES): CCC(C)Oc1ccc(C(=NOC)C(C)=NOCc2ccccc2C(=COC)C(=O)OC)cc1 (single isomer, unassigned) [Compound 1.29]
- curative action (Plasmopara viticola): complete curative action

Structure (SMILES): CCC(C)Oc1ccc(C(=NOC)C(C)=NOCc2ccccc2C(=COC)C(=O)OC)cc1 (single isomer, unassigned) [Compound 1.30]
- suppression of infestation (Phytophthora infestans): completely suppressed
- curative action (Plasmopara viticola): complete curative action

Structure (SMILES): COC=C(C(=O)OC)c1ccccc1CON=C(C)C(=NOC)c1cc(F)ccc1C (single isomer, unassigned) [Compound 1.52]
- curative action (Plasmopara viticola): complete curative action

Structure (SMILES): CCCOc1ccc(C(=NOC)C(C)=NOCc2ccccc2C(=COC)C(=O)OC)c(F)c1 (single isomer, unassigned) [Compound 1.63B]
- curative action (Plasmopara viticola): complete curative action

Structure (SMILES): CCCCOc1ccc(C(=NOC)C(C)=NOCc2ccccc2C(=COC)C(=O)OC)c(F)c1 (single isomer, unassigned) [Compound 1.71A]
- curative action (Plasmopara viticola): complete curative action

Structure (SMILES): CCCCOc1ccc(C(=NOC)C(C)=NOCc2ccccc2C(=COC)C(=O)OC)c(F)c1 (single isomer, unassigned) [Compound 1.71B]
- curative action (Plasmopara viticola): complete curative action

Structure (SMILES): COC=C(C(=O)OC)c1ccccc1CON=C(C)C(=NOC)c1ccc(OC(C)C)cc1F (single isomer, unassigned) [Compound 1.73A]
- curative action (Plasmopara viticola): complete curative action

Structure (SMILES): COC=C(C(=O)OC)c1ccccc1CON=C(C)C(=NOC)c1ccc(OC(C)C)cc1F (single isomer, unassigned) [Compound 1.73B]
- curative action (Plasmopara viticola): complete curative action

Structure (SMILES): CCC(C)Oc1ccc(C(=NOC)C(C)=NOCc2ccccc2C(=COC)C(=O)OC)c(F)c1 (single isomer, unassigned) [Compound 1.75A]
- suppression of infestation (Phytophthora infestans): completely suppressed

Structure (SMILES): COC=C(C(=O)OC)c1ccccc1CON=C(C)C(=NOC)c1ccc(OC)cc1C (single isomer, unassigned) [Compound 1.78]
- curative action (Plasmopara viticola): complete curative action

Structure (SMILES): COC=C(C(=O)OC)c1ccccc1CON=C(C)C(=NOC)c1ccc(OCC2CC2(Cl)Cl)c(F)c1 (stereo not drawn) [Compound 1.3, (2-{2-[4-(2,2-Dichloro-cyclopropylmethoxy)-3-fluoro-phenyl]-2-methoxyimino-1-methyl-ethylideneaminooxymethyl}phenyl)-3-methoxy-acrylic acid methyl ester]
- suppression of infestation (Phytophthora infestans): completely suppressed
- curative action (Plasmopara viticola): complete curative action

Structure (SMILES): COC=C(C(=O)OC)c1ccccc1CON=C(C)C(=NOC)c1cc(F)c(OCC2CC2(Cl)Cl)cc1F (stereo not drawn) [Compound 1.13, (2-{2-[4-(2,2-Dichloro-cyclopropylmethoxy)-2,5-difluoro-phenyl]-2-methoxyimino-1-methyl-ethylideneaminooxymethyl}-phenyl)-3-methoxy-acrylic acid methyl ester]
- suppression of infestation (Phytophthora infestans): completely suppressed
- curative action (Plasmopara viticola): complete curative action

Structure (SMILES): COC=C(C(=O)OC)c1ccccc1CON=C(C)C(=NOC)c1ccc(OCC(C)C)cc1 [Compound 1.31, {2-[2-(4-Isobutoxy-phenyl)-2-methoxyimino-1-methyl-ethylideneaminooxymethyl]-phenyl}-3-methoxy-acrylic acid methyl ester]
- suppression of infestation (Phytophthora infestans): completely suppressed
- curative action (Plasmopara viticola): complete curative action

Structure (SMILES): CCC(C)Oc1ccc(C(=NOC)C(C)=NOCc2ccccc2C(=NOC)C(=O)OC)cc1 (stereo not drawn) [Compound 2.21]
- curative action (Plasmopara viticola): complete curative action

Structure (SMILES): CON=C(C(C)=NOCc1ccccc1C(=NOC)C(=O)OC)c1ccc(OCC(C)C)cc1 [Compound 2.22]
- curative action (Plasmopara viticola): complete curative action

Structure (SMILES): CON=C(C(C)=NOCc1ccccc1C(=NOC)C(=O)OC)c1ccc(Oc2cccc(Br)c2)cc1 [Compound 2.25]
- curative action (Plasmopara viticola): complete curative action

Structure (SMILES): CON=C(C(C)=NOCc1ccccc1C(=NOC)C(=O)OC)c1ccc(Oc2ccc(C)cc2)cc1 [Compound 2.27]
- suppression of infestation (Phytophthora infestans): completely suppressed
- curative action (Plasmopara viticola): complete curative action

Structure (SMILES): CON=C(C(C)=NOCc1ccccc1C(=NOC)C(=O)OC)c1cccc(Oc2cccc(F)c2)c1 [Compound 2.32]
- suppression of infestation (Phytophthora infestans): completely suppressed

Structure (SMILES): CON=C(C(C)=NOCc1ccccc1C(=NOC)C(=O)OC)c1ccc(OC[Si](C)(C)C)cc1 [Compound 2.33]
- curative action (Plasmopara viticola): complete curative action

Structure (SMILES): CCCOc1ccc(C(=NOC)C(C)=NOCc2ccccc2C(=NOC)C(=O)OC)c(F)c1 [Compound 2.45, 2-Methoxyimino-(2-{2-methoxyimino-1-methyl-2-[2-fluoro-4-n-propoxy-phenyl]-ethylideneaminooxymethyl}-phenyl)-acetic acid methyl ester]
- curative action (Plasmopara viticola): complete curative action

Structure (SMILES): CCOc1ccc(C(=NOC)C(C)=NOCc2ccccc2C(=NOC)C(=O)OC)c(F)c1 [Compound 2.49, 2-Methoxyimino-(2-{2-methoxyimino-1-methyl-2-[2-fluoro-4-ethoxy-phenyl]-ethylideneaminooxymethyl}-phenyl)-acetic acid methyl ester]
- curative action (Plasmopara viticola): complete curative action

Structure (SMILES): CCC(C)Oc1ccc(C(=NOC)C(C)=NOCc2ccccc2C(=NOC)C(=O)OC)c(F)c1 (stereo not drawn) [Compound 2.55]
- suppression of infestation (Phytophthora infestans): completely suppressed
- curative action (Plasmopara viticola): complete curative action

Structure (SMILES): CON=C(C(C)=NOCc1ccccc1C(=NOC)C(=O)OC)c1ccc(OC)cc1C [Compound 2.58]
- suppression of infestation (Phytophthora infestans): completely suppressed
- curative action (Plasmopara viticola): complete curative action

Structure (SMILES): CCC(C)Oc1ccc(C(=NOC)C(C)=NOCc2ccccc2C(=NOC)C(=O)NC)cc1 (stereo not drawn) [Compound 3.21]
- curative action (Plasmopara viticola): complete curative action

Structure (SMILES): CNC(=O)C(=NOC)c1ccccc1CON=C(C)C(=NOC)c1ccc(OCC(F)(F)F)cc1 [Compound 3.43]
- curative action (Plasmopara viticola): complete curative action

Structure (SMILES): CCCOc1ccc(C(=NOC)C(C)=NOCc2ccccc2C(=NOC)C(=O)NC)c(F)c1 [Compound 3.46, 2-Methoxyimino-2-(2-{2-methoxyimino-1-methyl-2-[2-fluoro-4-n-propoxy-phenyl]-ethylideneaminooxymethyl}-phenyl)-N-methyl-acetamide]
- curative action (Plasmopara viticola): complete curative action

Structure (SMILES): CCC(C)Oc1ccc(C(=NOC)C(C)=NOCc2ccccc2C(=NOC)C(=O)NC)c(F)c1 (stereo not drawn) [Compound 3.56]
- suppression of infestation (Phytophthora infestans): completely suppressed
- curative action (Plasmopara viticola): complete curative action

Structure (SMILES): CCOc1ccc(C(=NOC)C(C)=NOCc2ccccc2C(=NOC)C(=O)NC)c(C)c1 [Compound 3.60, 2-Methoxyimino-2-(2-{2-methoxyimino-1-methyl-2-[4-ethoxy-2-methyl-phenyl]-ethylideneaminooxymethyl}-phenyl)-N-methyl-acetamide]
- suppression of infestation (Phytophthora infestans): completely suppressed

Structure (SMILES): COC=C(C(=O)OC)c1ccccc1CON=C(C)C(=NOCC=C(Cl)Cl)c1ccc(OC)cc1 [Compound 4.3]
- suppression of infestation (Phytophthora infestans): completely suppressed
- curative action (Plasmopara viticola): complete curative action

Structure (SMILES): CCCOc1ccc(C(=NOCC)C(C)=NOCc2ccccc2C(=COC)C(=O)OC)cc1 [Compound 4.57]
- suppression of infestation (Phytophthora infestans): completely suppressed
- curative action (Plasmopara viticola): complete curative action

Structure (SMILES): CCCOc1ccc(C(=NOCC)C(C)=NOCc2ccccc2C(=NOC)C(=O)OC)cc1 [Compound 4.58]
- curative action (Plasmopara viticola): complete curative action

Structure (SMILES): CCCON=C(C(C)=NOCc1ccccc1C(=COC)C(=O)OC)c1ccc(OCCC)cc1 [Compound 4.60]
- suppression of infestation (Phytophthora infestans): completely suppressed
- curative action (Plasmopara viticola): complete curative action

Structure (SMILES): C#CCON=C(C(C)=NOCc1ccccc1C(=NOC)C(=O)NC)c1ccc(OCCC)cc1 [Compound 4.65]
- curative action (Plasmopara viticola): complete curative action
